We go through two compounds from patent US8679442B2, “Fullerene compositions and methods for photochemical purification” (William Marsh Rice University, priority 2009, dated 2014).

The nature of series [1]: Photochemically-induced singlet oxygen production, furfuryl alcohol (FFA) degradation under BLB lamps. As to conditions: 50 μM derivative, 0.5 mM FFA. How it is done: Photochemically-Induced Singlet Oxygen Production from Hexakis-Substituted C60 Fullerene Derivatives. Photochemical generation of singlet oxygen was performed using a magnetically stirred 60 mL cylindrical quartz reactor surrounded by six 4 W black light blue (BLB) lamps (emission wavelength region: 350-400 nm, Philips TL4W) at ambient temperature (22° C.). The incident light intensity was 3.79×10^−4 Einstein·min^−1L^−1. Reaction solutions containing 50 μM of hexakis-substituted C60 fullerene derivatives 1-4 and 0.5 mM furfuryl alcohol (FFA) as an indicator/reactant for singlet oxygen formed were buffered at pH=7 using 10 mM phosphate buffer. Thereafter, the solutions were exposed to the light source. As the photochemical reaction proceeded, 1 mL sample aliquots were periodically withdrawn from the reactor using a syringe, filtered through a 0.22 μm PTFE filter (Millipore), and injected into a 2 mL amber glass vial for further analysis. The residual FFA concentration was quantified using HPLC. […] Generation of singlet oxygen from commercially-available fullerol is presented for comparison purposes.
Table 1 summarizes the initial degradation rate of FFA in the presence of hexakis-substituted C60 fullerene derivatives 1-4 in comparison to commercially available fullerol and Rose Bengal. Initial FFA degradation rates of hexakis-substituted C60 fullerene derivatives 1-4 in the presence of L-histidine and t-butanol are also presented for comparison. […] As shown by the FFA degradation rate, the singlet oxygen production of the C60 fullerene derivatives was greatest for hexakis-substituted C60 fullerene derivative 4 and smallest for hexakis-substituted C60 fullerene derivative 1.

Series [2] can be described thus: Triplet-state decay kinetics by laser flash photolysis. It is filed as physicochemical. Particulars: hexane solution, comparable experimental conditions. How it is done: Measurement of Triplet-State Decay Kinetics in Hexakis-Substituted C60 Fullerene Derivatives. Decay kinetics of the triplet states for the hexakis-substituted C60 derivatives were measured by laser flash photolysis using a 308 nm laser pulse (10-20 mJ with a pulse width of 10 ns). A xenon lamp was used as the monitoring source. […] The test solutions were purged with bubbling argon gas for 15 minutes and then sealed from the atmosphere. Instantaneous generation of the triplet state was induced by laser pulse irradiation with subsequent monitoring between 650 and 770 nm, depending on the specific functional groups present in each hexakis-substituted C60 fullerene derivative.

As to `O=C([O-])c1c(Cl)c(Cl)c(Cl)c(Cl)c1-c1c2cc(I)c(=O)c(I)c-2oc2c(I)c([O-])c(I)cc12.[Na+].[Na+]` [Rose Bengal], in series [1] (pH 7, 10 mM phosphate buffer, BLB 350-400 nm, no scavenger), the “Initial FFA Degradation Rate, No Scavenger” value was 16.34 ± 0.29. The “Initial FFA Degradation Rate, L-Histidine Scavenger” value in series [1] (pH 7, BLB 350-400 nm, excess L-histidine) is 0.07 ± 0.04. Moreover, the “Initial FFA Degradation Rate, t-Butanol Scavenger” value in series [1] (pH 7, BLB 350-400 nm, t-butanol) is recorded as 16.70 ± 0.47.

Turning to `c12c3c4c5c1c1c6c7c2c2c8c3c3c9c4c4c%10c5c5c1c1c6c6c%11c7c2c2c7c8c3c3c8c9c4c4c9c%10c5c5c1c1c6c6c%11c2c2c7c3c3c8c4c4c9c5c1c1c6c2c3c41` [C60, Buckminsterfullerene], the triplet state formation entry in series [2] is recorded as “not detected”.
